Consider 3 compounds from patent US20080004235A1, “TOPICAL COMPOSITIONS COMPRISING ONE OR MORE OF 4-THIOURIDINE, ISOMALTITOL AND URIDINE” (priority 2005, published 2008).

For one data set, the system named is skin. Briefly: Preliminary safety evaluation of topical exposure (SLS or UVB provoked skin), methodological study on humans. It is filed as in vivo, human. From the text: Skin irritation and dermatitis is a common problem among health care professionals due to frequent washing. We have utilized two well-established skin irritation models to investigate the effect of topically administered uridine or isomalt on skin physiology including measurement of dermal blood flow. Isomalt consists of 1,6-glucopyranosyl-D-sorbitol (GPS, isomaltitol) and 1,1-glucopyranosyl-D-mannitol (GPM) in a 1:1 ratio. The methodological study involves the study of various physiological parameters, such as dermal blood flow and visual assessment of erythema, subsequent to provocation by either exposure to UVB light or Sodium Lauryl Sulphate (SLS) and the effects of isomalt and uridine on these parameters. Only a very small area of the skin was exposed to the irritants UVB or SLS. The methodological study has been approved by the Medical Products Agency, Sweden and the Regional Ethical Review Board, Linköping, Sweden.
UVB provocation with a divergent beam produces a circular, radially fading skin erythema, the diameter of which corresponds to the minimal erythemal dose. […] SLS, which is a detergent, creates a local skin irritation mainly by disturbing the skins barrier function. A methodological study has been performed, both to evaluate the effects of uridine or isomalt on skin UVB-induced erythema and SLS irritation. […]

The conditions of data set [1]: cited from earlier work.
The next data set has as its system rats. The conditions noted are these: rat, in vivo; cited from earlier work.

For the compound `O=c1ccn([C@@H]2O[C@H](CO)[C@@H](O)[C@H]2O)c(=O)[nH]1` [uridine], in the data set on skin (saturated solution, topical exposure for 24 hours, all individuals), the “untoward effects such as exacerbated skin irritation or itching related to the exposure” value was “no untoward effects”.
For `OC[C@H](O)[C@@H](O)[C@H](O)[C@H](O)CO[C@H]1O[C@H](CO)[C@@H](O)[C@H](O)[C@H]1O` [isomaltitol, 6-O-α-D-glucopyranosyl-D-sorbitol], the “rise in blood glucose and insulin levels” value in data set [1] (compared to sugars and other carbohydrates) is given as “only a very small rise”. Moreover, the absorption result in data set [1] (in vivo) was “very slow and limited”. Besides, in the data set with rats, the toxic effect result is given as “doesn't seem to have any toxic effect”.
Take isomalt: in the data set on skin (in vivo), the “untoward effects such as exacerbated skin irritation or itching related to the exposure” value is listed as “no untoward effects”.
